Format in all cases: in vitro ADME
The nature of data set [1]: Stability in human hepatocytes. As to conditions: for half-life at 5 µM: t1/2, Human Hepatocytes; for half-life: 5 μM, 1 million cells/ml, 37° C., human hepatocytes.
A short description of data set [2]: Stability in human plasma. As to conditions: 37° C.; for t1/2, Human Plasma, Diastereoisomer B: 3 μM. The procedure, abridged:
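Test compound at 3 μM (0.1% DMSO) was incubated in mouse or human plasma at 37 °C and sampled in duplicate at 0, 10, 20, 30, 40 and 60 min. Reactions were stopped with acetonitrile/formic acid containing internal standard. Remaining parent was measured by UPLC-MS/MS without a calibration curve.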

Data set [3] is described as follows: Permeability in porcine brain endothelial cell blood-brain barrier model. As to conditions: pig (endothelial cells), co-cultured with rat astrocytes, pH 7.4, PBECs/As blood-brain barrier model, luminal to basal. The procedure, abridged:
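Co-culture of primary porcine brain endothelial cells on Transwell inserts over primary rat astrocytes, with TEER >500 Ω/cm^2 and FITC-dextran integrity control. Compound added apically in HBSS/20 mM Hepes pH 7.4/0.1% BSA and basal amount measured usually after 60 min, by LC-MS/MS, fluorescence or scintillation. Papp in cm/s, corrected for cell-free filter.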

A short description of data set [4]: Stability in mouse hepatocytes.
Where [5] appears, read: human, plasma, Diastereoisomer A (upfield shift in 31P NMR), read-out: t1/2, Human Plasma, Diastereoisomer A (converted).
[6] abbreviates: human, plasma, Diastereoisomer B, read-out: t1/2, Human Plasma, Diastereoisomer B (converted).
[7] abbreviates: Diastereoisomer A, read-out: Papp Diastereoisomer A.
The mark [8] stands for this setting: Diastereoisomer B, read-out: Papp Diastereoisomer B.
The mark [9] stands for this setting: t1/2, Mouse Hepatocytes, Diastereoisomer A.
[10] abbreviates: t1/2, Mouse Hepatocytes, Diastereoisomer B.
[11] abbreviates: Diastereoisomer A (upfield shift in 31P NMR), read-out: t1/2, Human Hepatocytes, Diastereoisomer A (converted).
Setting [12] is: Diastereoisomer B, read-out: t1/2, Human Hepatocytes, Diastereoisomer B (converted).
The mark [13] stands for this setting: Diastereoisomer A (upfield shift in 31P NMR), read-out: t1/2, Human Plasma, Diastereoisomer A (converted).
[14] abbreviates: Diastereoisomer A (upfield shift in 31P NMR), 5 μM, 1 million cells/ml, 37° C., mouse hepatocytes, read-out: t1/2, Mouse Hepatocytes, Diastereoisomer A (converted).
Setting [15] is: Diastereoisomer B, 5 μM, 1 million cells/ml, 37° C., mouse hepatocytes, read-out: t1/2, Mouse Hepatocytes, Diastereoisomer B (converted).

Read-outs that look alike come from different tables or passages of the source.

`COC(=O)[C@H](C)NP1(=O)OCC(C)(C)[C@H](C(=O)NCCC(=O)OCc2ccncc2)O1` (stereo partly drawn) [compound 20, (2S)-methyl 2-(((4R)-5,5-dimethyl-2-oxido-4-((3-oxo-3-(pyridin-4-ylmethoxy)propyl)carbamoyl)-1,3,2-dioxaphosphinan-2-yl)amino)propanoate]: the half-life at 5 µM was 142 min in data set [1] (Diastereoisomer A), 65.4 min in data set [1] (Diastereoisomer B), < 15 min in data set [4] (setting [9]) and < 15 min in data set [4] (setting [10]). Also, the half-life at 3 µM in data set [2] (setting [5]) is 44.4 min; in data set [2] (setting [6]), > 60 min. Further, the Papp A→B at 60 min turned out to be 47.9 nm/s in data set [3] (setting [7]) and 33.8 nm/s in data set [3] (setting [8]).
`COC(=O)CCNC(=O)[C@@H]1OP(=O)(NCCC(=O)OCc2ccccc2)OCC1(C)C` (stereo partly drawn) [compound 117, benzyl 3-(((4R)-4-((3-methoxy-3-oxopropyl)carbamoyl)-5,5-dimethyl-2-oxido-1,3,2-dioxaphosphinan-2-yl)amino)propanoate]: the half-life at 5 µM in data set [1] (Diastereoisomer A) is 18.6 min; in data set [1] (Diastereoisomer B) it was < 15 min; in data set [4] (setting [9]), < 15 min; in data set [4] (setting [10]) it was < 15 min. The half-life at 3 µM in data set [2] (setting [5]) and in data set [2] (setting [6]) was > 60 min each time. In addition, the Papp A→B at 60 min in data set [3] (setting [7]) amounted to 19.5 nm/s; in data set [3] (setting [8]), 29 nm/s.
`COC(=O)CCNC(=O)[C@@H]1OP(=O)(N[C@@H](C)C(=O)OC)OCC1(C)C` (stereo partly drawn) [compound 5, methyl 3-((4R)-2-(((S)-1-methoxy-1-oxopropan-2-yl)amino)-5,5-dimethyl-2-oxido-1,3,2-dioxaphosphinane-4-carboxamido)propanoate]: the half-life in data set [1] (setting [11]) is 159 min; in data set [1] (setting [12]), 60 min. Also, in data set [2] (setting [13]), the half-life at 3 µM is > 60 min. The “t1/2, Human Plasma, Diastereoisomer B” value in data set [2] (Diastereoisomer B) was >60 min. Moreover, the values for the Papp A→B at 60 min in data set [3] (setting [7]) and in data set [3] (setting [8]) were 62.7 nm/s and 50.6 nm/s, respectively. The half-life at 5 µM in data set [4] (setting [14]) is 22.8 min; in data set [4] (setting [15]), 18 min.
With `COC(=O)CCNC(=O)[C@@H]1OP(=O)(N[C@H](C)C(=O)OC)OCC1(C)C` (stereo partly drawn) [compound 16, methyl 3-((4R)-2-(((R)-1-methoxy-1-oxopropan-2-yl)amino)-5,5-dimethyl-2-oxido-1,3,2-dioxaphosphinane-4-carboxamido)propanoate], the half-life in data set [1] (setting [11]) was > 240 min; in data set [1] (setting [12]), 80.4 min. Besides, in data set [2] (setting [13]), the half-life at 3 µM is > 60 min. For the same compound, the “t1/2, Human Plasma, Diastereoisomer B” value in data set [2] (Diastereoisomer B) is >60 min. For the same compound, the Papp A→B at 60 min in data set [3] (setting [7]) came out at 33.3 nm/s; in data set [3] (setting [8]) it was 43.5 nm/s. For the same compound, the figures for the half-life at 5 µM in data set [4] (setting [14]) and in data set [4] (setting [15]) were 43.2 min and 15.6 min, respectively.
With `COC(=O)CCNC(=O)[C@@H]1OP(=O)(N[C@@H](C)C(=O)OCc2cc(C)cc(C)c2)OCC1(C)C` (stereo partly drawn) [compound 3, (2S)-3,5-dimethylbenzyl 2-(((4R)-4-((3-methoxy-3-oxopropyl)carbamoyl)-5,5-dimethyl-2-oxido-1,3,2-dioxaphosphinan-2-yl)amino)propanoate], the half-life at 5 µM in data set [1] (Diastereoisomer A), in data set [1] (Diastereoisomer B), in data set [4] (setting [9]) and in data set [4] (setting [10]) was < 15 min each time. Also, the half-life at 3 µM in data set [2] (setting [5]) and in data set [2] (setting [6]) was > 60 min in each case. In addition, the values for the Papp A→B at 60 min in data set [3] (setting [7]) and in data set [3] (setting [8]) were 99.9 nm/s and 84.7 nm/s, respectively.
For `CCc1cc(C(=O)OCOP2(=O)OCC(C)(C)[C@H](C(=O)NCCC(=O)OC)O2)n(C)n1` (stereo partly drawn) [Compound No. 84, (((4R)-4-((3-methoxy-3-oxopropyl)carbamoyl)-5,5-dimethyl-2-oxido-1,3,2-dioxaphosphinan-2-yl)oxy)methyl 3-ethyl-1-methyl-1H-pyrazole-5-carboxylate], the half-life at 5 µM in data set [1] (Diastereoisomer A), in data set [1] (Diastereoisomer B), in data set [4] (setting [9]) and in data set [4] (setting [10]) was < 15 min throughout. For the same compound, the half-life at 3 µM was > 60 min in data set [2] (setting [5]) and 57.6 min in data set [2] (setting [6]). Besides, the Papp A→B at 60 min in data set [3] (setting [7]) came to 101 nm/s; in data set [3] (setting [8]), 145 nm/s.

The values above are taken from patent US10364263B2, “Cyclic phosphates and cyclic phosphoramidates for the treatment of neurologic disorders” (Retrophin, Inc., priority 2015, dated 2019).
